Laboratory results as given in PubChem BioAssay (NCI).
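A five-concentration, 48-hour dose response in 96-well plates underlies each endpoint, interpolated linearly between surrounding concentrations. GI50 marks 50% less growth. TGI is the concentration that stops growth completely.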

Legend:
Assay in all cases: NCI-60 cell line screen, 48 h
OVCAR-4 ovarian = system: OVCAR-4 ovarian
SNB-75 CNS = system: SNB-75 CNS
PC-3 prostate = system: PC-3 prostate
RXF 393 renal = system: RXF 393 renal
HOP-92 NSCLC = system: HOP-92 NSCLC
A498 renal = system: A498 renal
SF-539 CNS = system: SF-539 CNS
HCT-116 colon = system: HCT-116 colon
TK-10 renal = system: TK-10 renal
HOP-62 NSCLC = system: HOP-62 NSCLC

SMILES | TGI (OVCAR-4 ovarian) | TGI (SNB-75 CNS) | TGI (PC-3 prostate) | TGI (RXF 393 renal) | TGI (HOP-92 NSCLC) | TGI (A498 renal) | TGI (SF-539 CNS) | TGI (HCT-116 colon) | TGI (TK-10 renal) | TGI (HOP-62 NSCLC) | GI50 (OVCAR-4 ovarian) | GI50 (SNB-75 CNS) | GI50 (PC-3 prostate) | GI50 (RXF 393 renal) | GI50 (HOP-92 NSCLC) | GI50 (A498 renal) | GI50 (SF-539 CNS) | GI50 (HCT-116 colon) | GI50 (HOP-62 NSCLC) | GI50 (TK-10 renal)
NCC(Cc1ccccc1)P(=O)(O)O (stereo unspecified) | > 100 µM | > 100 µM | > 100 µM | > 100 µM | > 100 µM | > 100 µM | > 100 µM | > 100 µM | > 100 µM | > 100 µM |  |  |  |  |  |  |  |  |  | 
CC1(C)N=C(N)N=C(N)N1c1ccc(OCCCCNC(=O)Nc2cccc(S(=O)(=O)F)c2)c(Cl)c1 | > 100 µM | 48.7 µM | > 100 µM | > 100 µM | > 100 µM | > 100 µM | 8.5 µM | > 100 µM |  | > 100 µM | 13.3 µM | 2980 nM | 0.0995 µM | 735 nM | 27100 nM | 14500 nM | 1270 nM | 594 nM | 10.6 µM | 
COc1ncc2cc1NS(=O)(=O)c1cccc(c1)C(=O)NCC1=CC=C(S1)c1ncnc3c1SC2=C3C | 10.5 µM | 2.26 µM | 2.77 µM | 0.695 µM | 0.667 µM | 0.548 µM |  | 2.85 µM | 10.4 µM | 4.1 µM | 1.22 µM | 17.6 nM | 0.0797 µM | 72.1 nM | 52.6 nM | 188 nM |  | 277 nM | 0.238 µM | 0.51 µM
CCN(CC)C(=O)CCCCCn1c2ccccc2c2c3c(c4c5ccccc5[nH]c4c21)C(=O)N(O)C3=O | > 100 µM | > 100 µM | 52.9 µM | > 100 µM | 7.68 µM | 20.3 µM | 4.27 µM | 28.1 µM | 64 µM | 47.8 µM | 5.06 µM | 7710 nM | 3.19 µM | 4010 nM | 2730 nM | 2860 nM | 1920 nM | 3750 nM | 11.6 µM | 3.64 µM
CCN(CCNc1ccc(C)c2sc3cc(Cl)ccc3c(=O)c12)CC(C)(C)O | > 100 µM | 16.8 µM | > 100 µM | 5.4 µM |  | 14.9 µM | 24 µM | 18.2 µM | 13.9 µM | 16.1 µM | 24.6 µM | 3310 nM | 12 µM | 2300 nM |  | 3470 nM | 5540 nM | 4940 nM | 3.87 µM | 3.59 µM
CCC1=C(c2ccc(OC)cc2)CC[C@]2(CCNC2=O)[C@@H]1C | 69.5 µM | > 95.6 µM | > 77 µM | > 100 µM | > 100 µM | > 100 µM | 54.8 µM | 52.6 µM | > 100 µM | > 100 µM |  |  |  |  |  |  |  |  |  | 
CC/C(=C(/c1ccc(/C=C/C(=O)O)cc1)c1ccc2[nH]ncc2c1)c1ccc(F)cc1Cl | 27.9 µM | 26.3 µM | 21.6 µM | 16.3 µM | 24.8 µM | 17.9 µM | 21.6 µM | 20.8 µM | 33.4 µM | 26.5 µM | 12 µM | 6910 nM | 7.95 µM | 5310 nM | 10100 nM | 4750 nM | 7840 nM | 7450 nM | 9.98 µM | 15.9 µM
O=[N+]([O-])c1ccc(/C=C\c2ccc3c(c2)OCO3)c([N+](=O)[O-])c1 |  | 31.5 µM | 63.4 µM | 7.76 µM | 53.5 µM | 46.7 µM | 39.1 µM | 21.4 µM | 46.3 µM | 69 µM |  |  |  |  |  |  |  |  |  | 
CN(C)CCS(=O)(=O)Nc1cc(-c2ccc3ncnc(Nc4ccc(F)c(Cl)c4)c3c2)cnc1Cl | > 100 µM | > 100 µM | > 100 µM | 1.22 µM | 0.513 µM | 1.17 µM |  | 6.43 µM | 1.31 µM | > 100 µM | 1.29 µM | 282 nM | 0.536 µM | 256 nM | 75.7 nM | 336 nM |  | 829 nM | 0.473 µM | 0.188 µM
C=C(C)[C@@H]1CC[C@]2(C(=O)n3ccnc3)CC[C@]3(C)[C@H](CC[C@@H]4[C@@]5(C)CCCNC(C)(C)[C@@H]5CC[C@]43C)[C@@H]12 |  | 10.1 µM | 2.67 µM | 2.92 µM | 2.96 µM | 29.8 µM | 3.03 µM | 2.25 µM | 6.82 µM | 3.31 µM |  | 2480 nM | 1.29 µM | 1500 nM | 1490 nM | 10400 nM | 1580 nM | 1030 nM | 1.75 µM | 2.58 µM
Nc1n[nH]c2ccc([C@@H]3Nc4c(F)cc5[nH]ncc5c4[C@H]4C5CCC(C5)[C@@H]34)cc12 (stereo partly specified) | > 85.8 µM | 7.25 µM | > 46.2 µM |  | > 29.3 µM | 0.337 µM | 0.598 µM | 6.22 µM | > 79.4 µM | 38.5 µM | 5.81 µM | 99.3 nM | 0.331 µM |  | 1480 nM | 41.3 nM | 157 nM | 293 nM | 0.432 µM | 5.6 µM
COc1ccc(C(=O)/C=C/c2ccc(OCc3ccccc3)c(OC)c2)cc1OC | > 100 µM |  | > 100 µM | 5.9 µM | 5.81 µM | 25.3 µM | 7.38 µM | > 100 µM | 43.8 µM | > 100 µM | 5.01 µM |  | 5.11 µM | 2320 nM | 1400 nM | 3240 nM | 2670 nM | 3190 nM | 3.67 µM | 4.32 µM
Cc1nn2c(-c3nc4cc(Cl)c(Cl)cc4[nH]3)c(-c3ccc(F)cc3)nc2s1 | 0.781 µM | 3.71 µM | > 100 µM | 5.41 µM |  | 8.37 µM | 11.1 µM | > 26 µM | 4.69 µM | 7.26 µM | 0.257 µM | 1560 nM | 9.29 µM | 1840 nM |  | 2090 nM | 2530 nM | 1300 nM | 1.93 µM | 2.19 µM
Cc1ccc(NC(=O)c2ccc(NC3=C(Cl)C(=O)N(Cc4ccccc4)C3=O)cc2)cc1Cl | 66.5 µM | 76.8 µM | 25.1 µM |  | 11.6 µM | 26.9 µM | 16.4 µM | 13.3 µM | 40.5 µM | 31.9 µM | 14.7 µM | 23900 nM | 12.5 µM |  | 1650 nM | 854 nM | 2470 nM | 3080 nM | 12.2 µM | 17.4 µM
